Data reported in ChEMBL document CHEMBL5335861, “Novel ACC Inhibitors for Treating Acne” (ACS Med Chem Lett, 2024).

Biological target: Acetyl-CoA carboxylase 1 (Homo sapiens, UniProt Q13085)
Test: Inhibition of full length human recombinant ACC1 expressed in baculovirus infected Sf9 cells incubated for 18 hrs in presence of ATP by envision fluorescence reader analysis

- IC50: 1.3 nM
SMILES: COc1cc(C(=O)N2CCC3(CC2)CC(=O)c2nc(C(C)(C)C)sc2C3)c2[nH]ccc2c1Cl
